Measured values taken from US11472814B2, “Thienopyranones and furanopyranones as checkpoint inhibitors and modulators of anti-tumor immunity” (SignalRx Pharmaceuticals, Inc., priority 2017, dated 2022).
Values joined by “and” are separate entries in the source; they are usually repeats but may differ in a detail not shown here. Equal entries are not always repeated.

What was measured:
SYK = biological target: T1, SYK (Homo sapiens, UniProt P43405); assay: SYK inhibition IC50 (Reaction Biology Corp.); assay type: biochemical; conditions: 10-point curve; read-out: SYK IC50
T1 construct: purchased Reaction Biology Corp., Malvern, Pa; (contract assay service)
From the text: (§1) The inhibitory activity of a compound of the invention against PI3K and/or BRD4 and/or SYK and/or CDK4/6 can be readily determined using methods known to the skilled artisan, or by commercial vendors offering such services. […] In vivo, PI3K inhibition can be determined from target tissue biopsies by standard tissue processing to disrupt cells and then performing Western Blot analysis to determine the presence or absence of pAKT (substrate of PI3K) relative to a control sample. The activity of a compound of the invention as an inhibitor of a bromodomain-containing protein, such as a BET protein, such as BRD2, BRD3, BRD4, and/or BRDT, or an isoform or mutant thereof, may be determined in vitro, in vivo, or in a cell line. In vitro assays include assays that determine inhibition of bromodomain-containing proteins. Alternatively, inhibitor binding may be determined by running a competition experiment where a provided compound is incubated with a bromodomain-containing protein, such as a BET protein bound to known ligands, labeled or unlabeled. For example, bromodomain inhibition can be determined in vitro using Alpha Screen Technology (http://www.reactionbiologv.com/webapps/site/NewsPDFs/Bromodomain%20Assay %20Platform %20for %20Drug %20Screening %20and %20Discovery.pdf). In vivo bromodomain inhibition can be determined indirectly by evaluating the amount of protein present of proteins whose genes' transcription is influenced or controlled by the bromodomain protein, for example, the MYCN protein transcription is controlled by BRD4 (J. E. Delmore et al., Cell 2011, 146, 904-917; A. Puissant, Cancer Discov. 2013, 3, 308-323). Bromodomain inhibition may also be predicted by in silico modeling as described below in the Examples. Additionally, the company Promega offers a SYK luminescent assay to determine a compound's ability to inhibit the SYK protein (https://www.promega.com/-/media/files/resources/protocols/kinase-enzyme-appnotes/syk-kinase-assay-protocol.pdf?la=en).
Compounds of the invention were characterized for their ability to inhibit target proteins using third party vendors offering such services. PI3K alpha, gamma, and delta inhibition activity was determined by Thermo Fisher Scientific-Biosciences Life Sciences Solutions, Madison, Wis. The bromodomain protein inhibition (binding domain 1 and 2 of BRD4) as well as SYK inhibition was determined at Reaction Biology Corp., Malvern, Pa. Additional information on each of the assays performed and services provided is available at each company's website on the internet (https://www.thermofisher.com/us/en/home/life-science.html and http://www.reactionbiology.com/webapps/site, respectively). The IC50 data (shown below in Table 5) was calculated from a 10-point curve and is expressed in nanomolar concentration (nM) rounded off to the nearest whole number. Where multiple values were obtained the range from lowest to highest values is presented. NI=no inhibition detected up to 50 uM or IC50 not reached at 50 uM.

[1] = test system: tumor associated macrophages (TAMs) from LLC tumors; assay: RT-PCR gene expression in tumor associated macrophages sorted from LLC tumors; assay type: in vivo, mice
From the text: RT-PCR analysis of cDNAs generated from mRNAs reflecting tumor associated macrophages (TAMs) isolated from LLC tumors grown in WT animals and treated with Compound 3. ***p<0.001**p<0.01 and *p<0.05, t test. […] Expression of gene of interest is normalized to GAPDH. […] Statistical significance is accessed by t test. For example, Compound 3 augmented IL1 gene expression in TAMs 8-fold and suppressed Arginase (Arg) 98% in TAMs isolated from LLC tumors in vivo.

PI3K γ = biological target: T2, PI3K γ (Homo sapiens, UniProt P48736); assay: PI3K gamma inhibition IC50 (Thermo Fisher); assay type: biochemical; conditions: 10-point curve
T2 construct: purchased Thermo Fisher Scientific-Biosciences Life Sciences Solutions, Madison, Wis; (contract assay service)
From the text: as §1
(§2) Compounds of the invention were characterized for their ability to inhibit target proteins using third party vendors offering such services. PI3K alpha, gamma, and delta inhibition activity was determined by Thermo Fisher Scientific-Biosciences Life Sciences Solutions, Madison, Wis. The bromodomain protein inhibition (binding domain 1 and 2 of BRD4) as well as SYK inhibition was determined at Reaction Biology Corp., Malvern, Pa. […] The IC50 data (shown below in Table 5) was calculated from a 10-point curve and is expressed in nanomolar concentration (nM) rounded off to the nearest whole number. […]

BRD4-2 = biological target: T3, BRD4-2 (Homo sapiens, UniProt O60885); assay: Bromodomain protein inhibition IC50, binding domain 2 of BRD4 (Reaction Biology Corp.); conditions: 10-point curve
T3 construct: purchased Reaction Biology Corp., Malvern, Pa; (contract assay service)
From the text: as §1, §2

[2] = LLC tumor growth in immunocompetent WT mice; assay type: in vivo; conditions: CT26, LLC and MC38 in immunocompetent mice
From the text: (§3) We investigated the effect of Compound 3 on immune cell in vitro and on tumor growth in in vivo in immunocompetent syngeneic tumor models and the effects on the macrophage and T cell immune compartment in vivo by this compound. […] In order to distinguish whether Compound 3 blocks tumor growth due to its effect on immune cell compartment and not on tumor compartment, we tested the effect of this chemotype on CT26 tumor growth in immunodeficient NSG mice vs immunocompetent Balb/c mice. […] Compound 3 has combinatorial immune-oncologic activity in vivo to stimulate anti-cancer innate and adaptive immunity in well-defined accepted immune competent murine models for cancer immunotherapy.
Compound 3: a novel dual Syk/PI3K inhibitory chemotype: Combinatorial inhibition of Syk and PI3K increases anti-tumor innate and adaptive T cell immune response in vivo. Tumor volume of LLC inoculated subcutaneously in WT mice treated with 10 mg/Kg Compound 3 (n=9, ***p<0.0001, t test). Conclusion: Compound 3 suppressed tumor growth of LLC by 68% in this immunocompetent immune-oncology model system as compared to vehicle control treated mice.
In contrast to above data, Compound 3 has a marked significant inhibitory effect on CT26, LLC and MC38 tumor growth in immunocompetent murine models. Conclusion: this establishes effect of Compound 3 as immune-oncologically active agent in cancer immunotherapy. […]

CT26 tumors = assay: CT26 tumor growth in immunocompetent Balb/c mice; assay type: in vivo
From the text: as §3
Tumor volumes of CT26 inoculated subcutaneously in Balb/c mice treated with 3 mg/Kg Compound 3, or 200 ug anti-PDL1 or both. Conclusion: Compound 3 has greater antitumor immune activating activity as compared to anti-PDL1 monoclonal antibody treatment in this in vivo immune-oncology model. Compound 3 suppressed tumor growth by 88% in this model (n=6, p<0.001, t test) as compared to vehicle control treated mice.
Conclusion: this establishes effect of Compound 3 as immune-oncologically active agent in cancer immunotherapy. In immunocompetent mice with same tumor cell ino kculum Compound 3 inhibited CT26 tumor growth by 58% decrease in tumor volume. (n=x, p<0.001, t test).
In contrast to above data, Compound 3 has a marked significant inhibitory effect on CT26, LLC and MC38 tumor growth in immunocompetent murine models. Conclusion: this establishes effect of Compound 3 as immune-oncologically active agent in cancer immunotherapy. In immunocompetent mice with same tumor cell inoculum Compound 3 inhibited tumor growth by from 58-68%. p<0.001 in all experiments compared to vehicle control.

[3] = LLC tumors in WT animals, vs vehicle
[4] = TAMs isolated from LLC tumors in vivo, vs vehicle

T2 sequence (P48736 whole entry): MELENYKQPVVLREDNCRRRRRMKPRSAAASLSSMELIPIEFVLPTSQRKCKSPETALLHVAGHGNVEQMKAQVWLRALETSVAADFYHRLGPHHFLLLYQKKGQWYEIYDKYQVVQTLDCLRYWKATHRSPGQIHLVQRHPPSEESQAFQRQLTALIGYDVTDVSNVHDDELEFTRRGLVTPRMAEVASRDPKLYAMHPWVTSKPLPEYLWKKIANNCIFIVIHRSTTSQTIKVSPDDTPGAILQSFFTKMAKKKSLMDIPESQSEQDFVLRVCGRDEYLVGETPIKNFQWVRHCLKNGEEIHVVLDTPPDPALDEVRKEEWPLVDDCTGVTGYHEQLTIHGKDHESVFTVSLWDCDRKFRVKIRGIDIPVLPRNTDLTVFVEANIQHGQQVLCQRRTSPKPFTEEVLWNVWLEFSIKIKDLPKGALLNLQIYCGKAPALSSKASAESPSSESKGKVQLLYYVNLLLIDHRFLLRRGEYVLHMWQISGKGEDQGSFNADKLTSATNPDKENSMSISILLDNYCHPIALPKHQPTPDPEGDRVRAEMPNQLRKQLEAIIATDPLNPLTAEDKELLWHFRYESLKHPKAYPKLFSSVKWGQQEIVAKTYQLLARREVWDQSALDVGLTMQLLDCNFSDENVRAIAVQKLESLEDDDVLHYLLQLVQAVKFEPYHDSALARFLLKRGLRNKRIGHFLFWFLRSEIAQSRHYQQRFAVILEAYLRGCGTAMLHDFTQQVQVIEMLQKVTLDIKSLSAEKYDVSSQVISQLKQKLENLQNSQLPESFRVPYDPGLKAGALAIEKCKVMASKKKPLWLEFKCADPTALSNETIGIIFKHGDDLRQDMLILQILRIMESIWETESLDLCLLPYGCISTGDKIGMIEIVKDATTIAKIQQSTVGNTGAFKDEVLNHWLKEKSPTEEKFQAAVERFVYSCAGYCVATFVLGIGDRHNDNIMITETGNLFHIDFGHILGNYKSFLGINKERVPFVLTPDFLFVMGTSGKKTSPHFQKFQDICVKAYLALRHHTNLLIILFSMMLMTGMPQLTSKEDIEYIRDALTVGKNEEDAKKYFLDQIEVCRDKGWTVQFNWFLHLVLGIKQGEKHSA

Cc1nn(-c2ccnc(Nc3ccc(-c4csc5c(=O)cc(N6CCOCC6)oc45)cc3)n2)cc1CN1CCC1 [Compound 3, 3-[p-(4-{4-[(1-Azetidinyl)methyl]-3-methyl-1H-pyrazol-1-yl}-2-pyrimidinylamino)phenyl]-5-morpholino-4-oxa-1-thia-7-indenone]
IC50 (SYK): < 0.1 µM | expression of immune response genes in TAMs [1, 3]: activated the expression of immune response genes | expression of macrophage M2 immunosuppressive genes in TAMs [1, 3]: suppressed the expression of macrophage M2 immunosuppressive genes | Nos2 gene expression in macrophages sorted from LLC tumors ([1]; TAMs from LLC tumors in treated WT mice, normalized to GAPDH, vehicle 0.95 ± 0.06): 21 ± 0.19 | Vegf gene expression in macrophages sorted from LLC tumors ([1]; TAMs from LLC tumors in treated WT mice, normalized to GAPDH, vehicle 0.995 ± 0.06): 0.56 ± 0.05 | Il1 gene expression in macrophages sorted from LLC tumors ([1]; TAMs from LLC tumors in treated WT mice, normalized to GAPDH, vehicle 1.0 ± 0.04): 8.3 ± 1.43 | Ifng gene expression in macrophages sorted from LLC tumors ([1]; TAMs from LLC tumors in treated WT mice, normalized to GAPDH, vehicle 1 ± 0.3): 3.26 ± 1.04 | Il6 gene expression in macrophages sorted from LLC tumors ([1]; TAMs from LLC tumors in treated WT mice, normalized to GAPDH, vehicle 1.0 ± 0.3): 1.8 ± 0.16 | Tgfb gene expression in macrophages sorted from LLC tumors ([1]; TAMs from LLC tumors in treated WT mice, normalized to GAPDH, vehicle 1 ± 0.7): 0.35 ± 0.014 | Arg gene expression in macrophages sorted from LLC tumors ([1]; TAMs from LLC tumors in treated WT mice, normalized to GAPDH, vehicle 1 ± 0.9): 0.08 ± 0.004 | Arginase (Arg) suppression in TAMs [1, 4]: 98% | IL1 gene expression in TAMs, augmentation [1, 4]: 8 fold | IC50 (PI3K γ): 5 to 50 µM | IC50 (BRD4-2): 1 to 5 µM | tumor growth inhibition across models [2]: 58-68% | CT26 tumor growth suppression (CT26 tumors; Balb/c mice, 3 mg/Kg, n=6, vs vehicle): 88% | % Growth inhibition compared to control (CT26 tumors; CT26 subcutaneous in Balb/c mice, 3 mg/Kg Compound 3, 200 ug anti-PDL1 or both, n=6): 88 ± 10% | % Growth inhibition of CT26 tumor (CT26 tumors; immunocompetent Balb/c mice, vs vehicle): 58% and 58 +/− 10% | CT26 tumor growth, combination (CT26 tumors; in combination with anti-PDL1 antibody): decrease in tumor growth
